Experimental data from US20260347373A1, “HETEROCYCLIC COMPOUNDS, COMPOSITIONS THEREOF, AND METHODS OF TREATMENT THEREWITH” (BeOne Medicines I GmbH, priority 2023, published 2026).
pIC50: −log10 of the molar value.

Columns and labels:
[1] = biological target: WT KRAS (Homo sapiens, UniProt P01116); assay: KRAS WT Probe Displacement Assay (TR-FRET, GDP-loaded); format: binding; settings: KRAS WT, read-out: KRAS^WT Probe Displacement Assay IC50
Description: (§1) The synthetic routes of probe 1 and 2, which have been disclosed in PCT/CN2022/070676, are hereby incorporated herein.

[2] = biological target: KRAS G12D (Homo sapiens, UniProt P01116, G12D); assay: KRAS G12D Probe Displacement Assay (TR-FRET, GDP-loaded); format: binding; settings: KRAS G12D, read-out: KRAS^G12D Probe Displacement Assay IC50
Chain of KRAS G12D (P01116 1-188 isoform P01116-2 G12D): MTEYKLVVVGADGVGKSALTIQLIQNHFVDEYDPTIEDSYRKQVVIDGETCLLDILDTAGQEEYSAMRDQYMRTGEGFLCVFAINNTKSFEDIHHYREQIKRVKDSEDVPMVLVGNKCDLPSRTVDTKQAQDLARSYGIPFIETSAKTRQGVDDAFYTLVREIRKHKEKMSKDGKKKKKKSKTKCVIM
Description: as §1

Chain of WT KRAS (P01116 1-188 isoform P01116-2): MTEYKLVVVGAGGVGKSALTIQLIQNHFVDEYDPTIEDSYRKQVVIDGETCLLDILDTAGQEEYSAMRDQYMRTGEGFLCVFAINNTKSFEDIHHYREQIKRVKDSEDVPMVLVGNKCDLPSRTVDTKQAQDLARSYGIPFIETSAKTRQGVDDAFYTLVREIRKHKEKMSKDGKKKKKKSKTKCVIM

Row | Structure (SMILES) | pIC50 [1] | pIC50 [2]
1 | Cc1cc(N)cc(-c2nc3c4c(nc(OCC5(CN6CCC=C(F)C6)CC5)nc4c2F)N2C[C@H]4CC[C@H](N4)[C@H]2CCO3)c1C(F)(F)F [Example 179, 3-((6aR,7S,10R)-1-fluoro-13-((1-((5-fluoro-3,6-dihydropyridin-1(2H)-yl)methyl)cyclopropyl)methoxy)-5,6,6a,7,8,9,10,11-octahydro-4-oxa-3,11a,12,14,15-pentaaza-7,10-methanocyclohepta[4,5]cycloocta[1,2,3-de]naphthalen-2-yl)-5-methyl-4-(trifluoromethyl)aniline] | 6.00 to 8.52 | > 9.52
2 | COC[C@@H]1[C@@H]2C[C@@H]2CN1CC1(COc2nc3c4c(nc(-c5cc(N)cc(C)c5C(F)(F)F)c(F)c4n2)OCC[C@@H]2[C@@H]4CC[C@H](CN32)N4)CC1 [Example 180, 3-((6aR,7S,10R)-1-fluoro-13-((1-(((1R,2S,5S)-2-(methoxymethyl)-3-azabicyclo[3.1.0]hexan-3-yl)methyl)cyclopropyl)methoxy)-5,6,6a,7,8,9,10,11-octahydro-4-oxa-3,11a,12,14,15-pentaaza-7,10-methanocyclohepta[4,5]cycloocta[1,2,3-de]naphthalen-2-yl)-5-methyl-4-(trifluoromethyl)aniline] | 6.00 to 8.52 | 8.52 to 9.52
3 | COC[C@H]1[C@@H]2C[C@@H]2CN1CC1(COc2nc3c4c(nc(-c5cc(N)cc(C)c5C(F)(F)F)c(F)c4n2)OCC[C@@H]2[C@@H]4CC[C@H](CN32)N4)CC1 [Example 181, 3-((6aR,7S,10R)-1-fluoro-13-((1-(((1R,2R,5S)-2-(methoxymethyl)-3-azabicyclo[3.1.0]hexan-3-yl)methyl)cyclopropyl)methoxy)-5,6,6a,7,8,9,10,11-octahydro-4-oxa-3,11a,12,14,15-pentaaza-7,10-methanocyclohepta[4,5]cycloocta[1,2,3-de]naphthalen-2-yl)-5-methyl-4-(trifluoromethyl)aniline] | 6.00 to 8.52 | > 9.52
4 | COC[C@@H]1[C@H]2C[C@H]2CN1CC1(COc2nc3c4c(nc(-c5cc(N)cc(C)c5C(F)(F)F)c(F)c4n2)OCC[C@@H]2[C@@H]4CC[C@H](CN32)N4)CC1 [Example 182, 3-((6aR,7S,10R)-1-fluoro-13-((1-(((1S,2S,5R)-2-(methoxymethyl)-3-azabicyclo[3.1.0]hexan-3-yl)methyl)cyclopropyl)methoxy)-5,6,6a,7,8,9,10,11-octahydro-4-oxa-3,11a,12,14,15-pentaaza-7,10-methanocyclohepta[4,5]cycloocta[1,2,3-de]naphthalen-2-yl)-5-methyl-4-(trifluoromethyl)aniline] | 6.00 to 8.52 | > 9.52
5 | COC[C@H]1[C@H]2C[C@H]2CN1CC1(COc2nc3c4c(nc(-c5cc(N)cc(C)c5C(F)(F)F)c(F)c4n2)OCC[C@@H]2[C@@H]4CC[C@H](CN32)N4)CC1 [Example 183, 3-((6aR,7S,10R)-1-fluoro-13-((1-(((1S,2R,5R)-2-(methoxymethyl)-3-azabicyclo[3.1.0]hexan-3-yl)methyl)cyclopropyl)methoxy)-5,6,6a,7,8,9,10,11-octahydro-4-oxa-3,11a,12,14,15-pentaaza-7,10-methanocyclohepta[4,5]cycloocta[1,2,3-de]naphthalen-2-yl)-5-methyl-4-(trifluoromethyl)aniline] | 6.00 to 8.52 | > 9.52
6 | CO[C@@H]1CCN(CC2(COc3nc4c5c(nc(-c6cc(N)cc(C)c6C(F)(F)F)c(F)c5n3)OCC[C@@H]3[C@@H]5CC[C@H](CN43)N5)CC2)C[C@@H]1F [Example 184, 3-((6aR,7S,10R)-1-fluoro-13-((1-(((3S,4R)-3-fluoro-4-methoxypiperidin-1-yl)methyl)cyclopropyl)methoxy)-5,6,6a,7,8,9,10,11-octahydro-4-oxa-3,11a,12,14,15-pentaaza-7,10-methanocyclohepta[4,5]cycloocta[1,2,3-de]naphthalen-2-yl)-5-methyl-4-(trifluoromethyl)aniline] | 6.00 to 8.52 | > 9.52
7 | CO[C@H]1CCN(CC2(COc3nc4c5c(nc(-c6cc(N)cc(C)c6C(F)(F)F)c(F)c5n3)OCC[C@@H]3[C@@H]5CC[C@H](CN43)N5)CC2)C[C@H]1F [Example 185, 3-((6aR,7S,10R)-1-fluoro-13-((1-(((3R,4S)-3-fluoro-4-methoxypiperidin-1-yl)methyl)cyclopropyl)methoxy)-5,6,6a,7,8,9,10,11-octahydro-4-oxa-3,11a,12,14,15-pentaaza-7,10-methanocyclohepta[4,5]cycloocta[1,2,3-de]naphthalen-2-yl)-5-methyl-4-(trifluoromethyl)aniline] | 6.00 to 8.52 | > 9.52
8 | Cc1cc(N)cc(-c2nc3c4c(nc(OCC5(CN6CCC7(CCOC7)C6)CC5)nc4c2F)N2C[C@H]4CC[C@H](N4)[C@H]2CCO3)c1C(F)(F)F (stereo partly drawn) [Example 188, 3-((6aR,7S,10R)-13-((1-((2-oxa-7-azaspiro[4.4]nonan-7-yl)methyl)cyclopropyl)methoxy)-1-fluoro-5,6,6a,7,8,9,10,11-octahydro-4-oxa-3,11a,12,14,15-pentaaza[7,10]methanocyclohepta[4,5]cycloocta[1,2,3-de]naphthalen-2-yl)-5-methyl-4-(trifluoromethyl)aniline] | > 9.52 | > 9.52
9 | Cc1cc(N)cc(-c2nc3c4c(nc(OCC5(CN6CCC7(COC7)C6)CC5)nc4c2F)N2C[C@H]4CC[C@H](N4)[C@H]2CCO3)c1C(F)(F)F [Example 189, 3-((6aR,7S,10R)-13-((1-((2-oxa-6-azaspiro[3.4]octan-6-yl)methyl)cyclopropyl)methoxy)-1-fluoro-5,6,6a,7,8,9,10,11-octahydro-4-oxa-3,11a,12,14,15-pentaaza[7,10]methanocyclohepta[4,5]cycloocta[1,2,3-de]naphthalen-2-yl)-5-methyl-4-(trifluoromethyl)aniline] | 6.00 to 8.52 | > 9.52
10 | Cc1cc(N)cc(-c2nc3c4c(nc(OCC5(CN6CCCC67CCOC7)CC5)nc4c2F)N2C[C@H]4CC[C@H](N4)[C@H]2CCO3)c1C(F)(F)F (stereo partly drawn) [Example 190, 3-((6aR,7S,10R)-13-((1-((7-oxa-1-azaspiro[4.4]nonan-1-yl)methyl)cyclopropyl)methoxy)-1-fluoro-5,6,6a,7,8,9,10,11-octahydro-4-oxa-3,11a,12,14,15-pentaaza[7,10]methanocyclohepta[4,5]cycloocta[1,2,3-de]naphthalen-2-yl)-5-methyl-4-(trifluoromethyl)aniline] | 6.00 to 8.52 | > 9.52
11 | Cc1cc(N)cc(-c2nc3c4c(nc(OCC5(CN6CCN(C7COC7)CC6)CC5)nc4c2F)N2C[C@H]4CC[C@H](N4)[C@H]2CCO3)c1C(F)(F)F [Example 191, 3-((6aR,7S,10R)-1-fluoro-13-((1-((4-(oxetan-3-yl)piperazin-1-yl)methyl)cyclopropyl)methoxy)-5,6,6a,7,8,9,10,11-octahydro-4-oxa-3,11a,12,14,15-pentaaza-7,10-methanocyclohepta[4,5]cycloocta[1,2,3-de]naphthalen-2-yl)-5-methyl-4-(trifluoromethyl)aniline] | 6.00 to 8.52 | > 9.52
